Measurements taken from patent US20060094664A1, “Deoxycholic acid derivatives for the treatment of acute dysfunctions of portal and hepatic venous circulation” (priority 2002, published 2006).
Marks after values point to notes of the source that are not given here.

Key:
[1] = test system: rat liver perfused with norepinephrine solution; test: Perfused rat liver: intrahepatic constriction induced by norepinephrine, infusion of tested compound; assay type: in vivo; conditions: for Portal pressure % increase after NE infusion: liver perfused with norepinephrine 1 μM, then single infusion of 1 mM solution of tested compound
Procedure: At the end of the treatment (fourth week) the animals were anaesthetized with urethane and then systemic pressure (MAP) and portal pressure (PP) were monitored by catheterisation both of the carotid and portal vein. The animal liver was then continuously perfused with Krebs solution (40 ml/min) balanced with O2/CO2 (95%-5%) using a peristaltic pump (Gilson) In this way the pharmacological effect of both tested compounds has been evaluated. The rat liver was then firstly perfused with norepinephrine solution (1 μM) in order to induce an intrahepatic circulation constriction. Afterwards, in groups 2 and 3 a single infusion with a 1 mM solution of each of the tested compounds was carried out and portal pressure variations have been monitored.

[2] = test system: Wistar rats subjected to ligature of bile duct; test: Portal and systemic pressure after a week treatment in rats with bile duct ligature; assay type: in vivo, rat; conditions: for Portal pressure After a week treatment: bile duct ligated Wistar rats, 0.04 mmol/kg twice a day intragastric for one week
Source text: Twenty one Wistar rats were divided in three groups of 7 animals each and then subjected to ligature of bile duct. Within three weeks following the ligature, the animals were left on rest. As a consequence of the bile duct ligature, the animals developed dysfunctions of the hepatic and portal venous circulation. At the end of the third week, each group underwent the following weekly treatment protocol: • Group 1: control group treated with carrier (1% w/v water suspension of carboxymethylcellulose); • Group 2: treated with NO-urso at a dose of 28 mg/kg (0.04 mmol/kg), twice a day; • Group 3: treated with ursodeoxycholic acid (urso in table) at a dose of 15 mg/kg (0,04 mmol/kg), twice a day. The rested compounds have been administered by intragastric cannula in 1% water suspension of carboxymethylcellulose. At the end of the treatment (fourth week) the animals were anaesthetized with urethane and then systemic pressure (MAP) and portal pressure (PP) were monitored by catheterisation both of the carotid and portal vein. The animal liver was then continuously perfused with Krebs solution (40 ml/min) balanced with O2/CO2 (95%-5%) using a peristaltic pump (Gilson) In this way the pharmacological effect of both tested compounds has been evaluated.

[3] = test system: Wistar rats subjected to ligature of bile duct; test: Hepatic fibrosis evaluated by an immunocytochemical method in bile duct ligated rats; assay type: in vivo, rat; conditions: a week treatment in bile duct ligated rats
Source text: Twenty one Wistar rats were divided in three groups of 7 animals each and then subjected to ligature of bile duct. Within three weeks following the ligature, the animals were left on rest. As a consequence of the bile duct ligature, the animals developed dysfunctions of the hepatic and portal venous circulation. At the end of the third week, each group underwent the following weekly treatment protocol: • Group 1: control group treated with carrier (1% w/v water suspension of carboxymethylcellulose); • Group 2: treated with NO-urso at a dose of 28 mg/kg (0.04 mmol/kg), twice a day; • Group 3: treated with ursodeoxycholic acid (urso in table) at a dose of 15 mg/kg (0,04 mmol/kg), twice a day.

Row | SMILES | Portal pressure % increase after NE infusion [1] [%] | influence on systemic hemodynamic parameters (systemic pressure, cardiac frequency) ([2]; a week treatment in bile duct ligated rats) | portal pressure increase with respect to controls ([2]; after the week treatment, perfusion rate 40 ml/min) [mmHg] | Portal pressure After a week treatment ([2]; perfusion rate 40 ml/min) | Systemic hemodynamic parameters: Systemic pressure (MAP) ([2]; bile duct ligated rats after a week treatment, 0.04 mmol/kg twice a day, carotid catheterisation, in mmHg (unit assumed)) | Systemic hemodynamic parameters: Cardiac frequency ([2]; bile duct ligated rats after a week treatment, 0.04 mmol/kg twice a day, in beats/min (unit assumed)) | increase of intrahepatic resistance induced by norepinephrine ([1]; 500% increase determined by NE infusion, NO-urso p<0.001) | influence on hepatic fibrosis [3] | influence on hepatic fibrosis ([3]; listed as No-urso) | portal pressure reduction ([2]; after the week treatment, perfusion rate 40 ml/min, with respect to controls) [mmHg] | influence on systemic hemodynamic parameters (systemic pressure, cardiac frequency) ([2]; rat, in vivo)
1 | C[C@H](CCC(=O)O)[C@H]1CC[C@H]2[C@@H]3[C@@H](O)C[C@@H]4C[C@H](O)CC[C@]4(C)[C@H]3CC[C@]12C [Urso, ursodeoxycholic acid] | 400 | do not influence | 2 | 19 mmHg | 95 ± 12 | 372 ± 41 | – | – | – | – | –
2 | COc1cc(/C=C/C(=O)OCCCCO[N+](=O)[O-])ccc1OC(=O)CC[C@@H](C)[C@H]1CC[C@H]2[C@@H]3[C@@H](O)C[C@@H]4C[C@H](O)CC[C@]4(C)[C@H]3CC[C@]12C [NO-urso, (3α,5β,7β)-3,7-dihydroxycholan-24-oic Acid 2-methoxy-4[3-[4-(nitrooxy)butoxy]-3-oxo-1-propenyl]phenyl Ester] | 180 | – | – | 14* mmHg | – | – | significantly reduced | does not modify | do not influence | 3 | do not influence
